Experimental data published in ChEMBL document CHEMBL6078695, “Design, synthesis, and biological evaluations of 5-aryl-pyrazole-3-carboxamide derivatives as selective CB2 receptor agonists for the treatment of colitis” (Eur J Med Chem, 2025).
Active and inactive are the calls of the source. No cut-off for these calls is given here.

Assays:
Cannabinoid receptor 1 [1] = biological target: T1, Cannabinoid receptor 1 (Homo sapiens, UniProt P21554); test: Agonist activity at human CB1 receptor expressed in CHO-K1 cells co-transfected with human Galpha16 assessed as intracellular calcium flux at 10 uM relative to control; format: functional, cell-based
T1 sequence (P21554 whole entry): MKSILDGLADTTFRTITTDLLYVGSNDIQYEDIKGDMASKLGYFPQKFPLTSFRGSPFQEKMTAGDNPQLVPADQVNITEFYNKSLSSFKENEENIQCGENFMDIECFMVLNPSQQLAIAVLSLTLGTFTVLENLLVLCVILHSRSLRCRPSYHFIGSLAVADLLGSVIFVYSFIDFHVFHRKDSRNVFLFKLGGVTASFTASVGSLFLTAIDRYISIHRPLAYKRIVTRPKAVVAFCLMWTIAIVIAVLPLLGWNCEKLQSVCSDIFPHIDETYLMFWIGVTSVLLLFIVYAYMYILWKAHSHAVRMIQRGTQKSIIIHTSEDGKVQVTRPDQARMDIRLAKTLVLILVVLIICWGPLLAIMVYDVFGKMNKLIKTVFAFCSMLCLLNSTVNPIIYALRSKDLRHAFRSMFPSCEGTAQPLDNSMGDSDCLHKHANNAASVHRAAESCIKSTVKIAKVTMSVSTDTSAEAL

Cannabinoid receptor 2 [2] = biological target: T2, Cannabinoid receptor 2 (Homo sapiens, UniProt P34972); test: Agonist activity at human CB2 receptor expressed in CHO-K1 cells co-transfected with human Galpha16 assessed as intracellular calcium flux; format: functional, cell-based
T2 sequence (P34972 whole entry): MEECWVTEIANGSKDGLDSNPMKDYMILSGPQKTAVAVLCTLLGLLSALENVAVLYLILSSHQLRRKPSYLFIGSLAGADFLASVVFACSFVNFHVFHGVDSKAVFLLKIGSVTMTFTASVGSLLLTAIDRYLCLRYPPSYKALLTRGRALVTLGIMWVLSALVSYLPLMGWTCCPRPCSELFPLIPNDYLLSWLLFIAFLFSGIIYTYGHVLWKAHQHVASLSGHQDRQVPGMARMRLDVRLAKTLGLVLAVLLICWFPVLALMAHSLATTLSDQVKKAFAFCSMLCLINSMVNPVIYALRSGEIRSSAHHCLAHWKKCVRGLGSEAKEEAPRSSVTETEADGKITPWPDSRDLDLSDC

Cannabinoid receptor 2 [3] = biological target: T2, Cannabinoid receptor 2; test: Agonist activity at human CB2 receptor expressed in CHO-K1 cells co-transfected with human Galpha16 assessed as intracellular calcium flux at 10 uM relative to control; format: functional, cell-based; conditions: filed as agonist
Cannabinoid receptor 2 [4] = biological target: T2, Cannabinoid receptor 2; test: Antagonist activity at human CB2 receptor expressed in CHO-K1 cells co-transfected with human Galpha16 assessed as intracellular calcium flux; format: functional, cell-based
Cannabinoid receptor 2 [5] = biological target: T2, Cannabinoid receptor 2; test: Agonist activity at human CB2 receptor expressed in HEK293 cells assessed as forskolin-stimulated cAMP accumulation preincubated with compound for 10 mins followed by forskolin induction and measured after 2 hrs by HTRF analysis; format: functional, cell-based
Cannabinoid receptor 2 [6] = biological target: T2, Cannabinoid receptor 2; test: Agonist activity at human CB2 receptor expressed in CHO cells assessed as reduction in ERK1/2 phosphorylation at 10 uM by Western blot analysis; format: functional, cell-based
Cannabinoid receptor 2 [7] = biological target: T2, Cannabinoid receptor 2; test: Antagonist activity at human CB2 receptor expressed in CHO cells co-transfected with human Galpha16 assessed as increase in intracellular calcium mobilization at 10 uM; format: functional, cell-based; conditions: filed as antagonist
Cannabinoid receptor 2 [8] = biological target: T2, Cannabinoid receptor 2; test: Antagonist activity at human CB2 receptor expressed in CHO cells co-transfected with human Galpha16 assessed as increase in intracellular calcium mobilization at 10 uM preincubated with compound for 10 mins followed by HBSS buffer wash and re-treated with compound at same concentration; format: functional, cell-based; conditions: filed as antagonist
Cannabinoid receptor 2 [9] = biological target: T2, Cannabinoid receptor 2; test: Antagonist activity at human CB2 receptor expressed in CHO cells co-transfected with human Galpha16 assessed as receptor desensitization by measuring reduction in calcium response at 10 uM; format: functional, cell-based; conditions: filed as antagonist
Cannabinoid receptor 1 [10] = biological target: T1, Cannabinoid receptor 1; test: Agonist activity at human CB1 receptor expressed in CHO-K1 cells co-transfected with human Galpha16 assessed as intracellular calcium flux; format: functional, cell-based
Cannabinoid receptor 1 [11] = biological target: T1, Cannabinoid receptor 1; test: Antagonist activity at human CB1 receptor expressed in CHO-K1 cells co-transfected with human Galpha16 assessed as intracellular calcium flux; format: functional, cell-based
Cannabinoid receptor 2 [12] = biological target: T2, Cannabinoid receptor 2; test: Agonist activity at human CB2 receptor expressed in CHO-K1 cells co-transfected with human Galpha16 assessed as intracellular calcium flux at 10 uM; format: functional, cell-based
Cannabinoid receptor 2 [13] = biological target: T2, Cannabinoid receptor 2; test: Partial agonist activity at human CB2 receptor expressed in CHO-K1 cells co-transfected with human Galpha16 assessed as intracellular calcium flux at 10 uM; format: functional, cell-based
Cannabinoid receptor 2 [14] = biological target: T2, Cannabinoid receptor 2; test: Antagonist activity at human CB2 receptor expressed in CHO cells co-transfected with human Galpha16 assessed as increase in intracellular calcium mobilization; format: functional, cell-based; conditions: filed as antagonist
Cannabinoid receptor 2 [15] = biological target: T2, Cannabinoid receptor 2; test: Antagonist activity at human CB2 receptor expressed in CHO cells co-transfected with human Galpha16 assessed as receptor desensitization by measuring reduction in calcium response; format: functional, cell-based; conditions: filed as antagonist
Mus musculus [16] = test: Antiinflammatory activity against DSS-induced colitis C57/BL6 mouse model assessed as reduction in body weight loss at 10 to 30 mg/kg, po administered for 9 days; format: functional, organism-based; conditions: dose 10-30 mg/kg, time 9.0 day
Mus musculus [17] = test: Antiinflammatory activity against DSS-induced colitis C57/BL6 mouse model assessed as delay in diarrhoea development at 10 to 30 mg/kg, po administered for 9 days; format: functional, organism-based; conditions: dose 10-30 mg/kg, time 9.0 day
Mus musculus [18] = test: Antiinflammatory activity against DSS-induced colitis C57/BL6 mouse model assessed as delay in hematochezia development at 10 to 30 mg/kg, po administered for 9 days; format: functional, organism-based; conditions: dose 10-30 mg/kg, time 9.0 day
Mus musculus [19] = test: Antiinflammatory activity against DSS-induced colitis C57/BL6 mouse model assessed as reduction in disease activity index (DAI) score at 10 to 30 mg/kg, po administered for 9 days; format: functional, organism-based; conditions: dose 10-30 mg/kg, time 9.0 day
Mus musculus [20] = test: Antiinflammatory activity against DSS-induced colitis C57/BL6 mouse model assessed as disruption of epithelial layer in colon at 10 to 30 mg/kg, po administered for 9 days by H and E staining based analysis; format: functional, organism-based; conditions: dose 10-30 mg/kg, time 9.0 day
Mus musculus [21] = test: Antiinflammatory activity against DSS-induced colitis C57/BL6 mouse model assessed as loss of goblet cells at 10 to 30 mg/kg, po administered for 9 days by H and E staining based analysis; format: functional, organism-based; conditions: dose 10-30 mg/kg, time 9.0 day
Mus musculus [22] = test: Antiinflammatory activity against DSS-induced colitis C57/BL6 mouse model assessed as reduction in inflammatory infiltration at 10 to 30 mg/kg, po administered for 9 days by H and E staining based analysis; format: functional, organism-based; conditions: dose 10-30 mg/kg, time 9.0 day
Mus musculus [23] = test: Antiinflammatory activity against DSS-induced colitis in po dosed C57/BL6 mouse model assessed as suppression of TNF-alpha expression administered for 9 days by ELISA analysis; format: functional, organism-based; conditions: dose 10-30 mg/kg, time 9.0 day
Mus musculus [24] = test: Antiinflammatory activity against DSS-induced colitis in po dosed C57/BL6 mouse model assessed as suppression of IL-1beta expression administered for 9 days by ELISA analysis; format: functional, organism-based; conditions: dose 10-30 mg/kg, time 9.0 day
Mus musculus [25] = test: Antiinflammatory activity against DSS-induced colitis in po dosed C57/BL6 mouse model assessed as suppression of IL-6 expression administered for 9 days by ELISA analysis; format: functional, organism-based; conditions: dose 10-30 mg/kg, time 9.0 day
Cannabinoid receptor 1 [26] = biological target: T1, Cannabinoid receptor 1; test: Partial agonist activity at human CB1 receptor expressed in CHO-K1 cells co-transfected with human Galpha16 assessed as intracellular calcium flux; format: functional, cell-based
Cannabinoid receptor 1 [27] = biological target: T1, Cannabinoid receptor 1; test: Partial agonist activity at human CB1 receptor expressed in CHO-K1 cells co-transfected with human Galpha16 assessed as intracellular calcium flux at 10 uM relative to control; format: functional, cell-based; conditions: filed as partial agonist
Cannabinoid receptor 2 [28] = biological target: T2, Cannabinoid receptor 2; test: Partial agonist activity at human CB2 receptor expressed in CHO-K1 cells co-transfected with human Galpha16 assessed as intracellular calcium flux; format: functional, cell-based
Cannabinoid receptor 2 [29] = biological target: T2, Cannabinoid receptor 2; test: Partial agonist activity at human CB2 receptor expressed in CHO-K1 cells co-transfected with human Galpha16 assessed as intracellular calcium flux at 10 uM relative to control; format: functional, cell-based; conditions: filed as partial agonist

SMILES	EC50 (Cannabinoid receptor 2 [2]) [nM]	Emax (Cannabinoid receptor 2 [3]) [%]	IC50 (Cannabinoid receptor 2 [4]) [nM]	EC50 (Cannabinoid receptor 1 [10]) [nM]	IC50 (Cannabinoid receptor 1 [11]) [nM]	Activity (Cannabinoid receptor 2 [13]; filed as partial agonist)	also measured
CCCCCCC(C)(C)c1ccc([C@@H]2C[C@H](C)CC[C@H]2CCCO)c(O)c1	35	100	> 100000				Emax (Cannabinoid receptor 1 [1]; filed as agonist): 100%; EC50 (Cannabinoid receptor 2 [5]): 16.3 nM; Activity (Cannabinoid receptor 2 [6]): inactive; Activity (Cannabinoid receptor 2 [7]): Active; Activity (Cannabinoid receptor 2 [8]): Active; Activity (Cannabinoid receptor 2 [9]): Active
CCCCn1nc(C(=O)NC(C)(C)CO)cc1-c1cccn1C(C)C	> 100000		> 100000	> 100000	> 100000	Weak_effect	Activity (Cannabinoid receptor 2 [12]): inactive
CCCCn1nc(C(=O)NC(C)(C)CO)cc1-c1cccs1	16.2	90	> 100000	> 100000	> 100000		EC50 (Cannabinoid receptor 2 [5]): 15.1 nM; Activity (Cannabinoid receptor 2 [6]): inactive; Activity (Cannabinoid receptor 2 [14]): Active; Activity (Cannabinoid receptor 2 [15]): Active; Activity (Mus musculus [16]): Active; Activity (Mus musculus [17]): Active; Activity (Mus musculus [18]): Active; Activity (Mus musculus [19]): Active; Activity (Mus musculus [20]): Active; Activity (Mus musculus [21]): Active; Activity (Mus musculus [22]): Active; Activity (Mus musculus [23]): Dose-dependent-effect; Activity (Mus musculus [24]): Dose-dependent-effect; Activity (Mus musculus [25]): Dose-dependent-effect
COc1ccc(-n2nc(C(=O)NC(C)(C)CO)cc2-c2cccs2)cc1	> 100000		> 100000	> 100000	> 100000		Activity (Cannabinoid receptor 2 [13]): inactive
CCCCCn1nc(C(=O)NC(C)(C)CO)cc1-c1cccn1CC	7.7	76	> 100000	37.5	> 100000		Emax (Cannabinoid receptor 1 [1]; filed as agonist): 90%
CCCCCn1nc(C(=O)NC(C)(C)CO)cc1-c1cccs1	8.8	95		593	> 100000		Emax (Cannabinoid receptor 1 [1]; filed as agonist): 70%
CC(C)(CO)NC(=O)c1cc(-c2cccs2)n(-c2ccc(F)cc2)n1	852	48	> 100000	> 100000	> 100000	Weak_effect	
Cc1ccc(-n2nc(C(=O)NC(C)(C)CO)cc2-c2cccs2)cc1	1040	45	> 100000	> 100000	> 100000	Weak_effect	
CCCCCn1nc(C(=O)NC(C)(C)CO)cc1-c1sccc1C	274	85	> 100000	424	> 100000		Emax (Cannabinoid receptor 1 [1]): 30%
CC(C)(CO)NC(=O)c1cc(-c2cccs2)n(CC2CC2)n1	174	55	> 100000	> 100000	> 100000		Activity (Cannabinoid receptor 2 [12]; filed as agonist): Active
CCCCCn1nc(C(=O)NC(C)(C)CO)cc1-c1ccco1					> 100000		EC50 (Cannabinoid receptor 1 [26]): 957 nM; Emax (Cannabinoid receptor 1 [27]): 80%; EC50 (Cannabinoid receptor 2 [28]): 56 nM; Emax (Cannabinoid receptor 2 [29]): 50%
CC(C)(CO)NC(=O)c1cc(-c2cccs2)n(-c2ccc(Cl)cc2)n1	788	82	> 100000	> 100000	> 100000	Weak_effect	
